Values of other authors as cited in patent US11219614B2, “Combination cancer therapy with pentaaza macrocyclic ring complex and ascorbate compound” (Galera Labs, LLC, priority 2016, dated 2022).

Legend:
[1] = system: experimental model of colitis; conditions: rats; cited from earlier work
[2] = system: radiation-induced oral mucositis; conditions: hamster, acute radiation-induced oral mucositis; cited from earlier work
[3] = system: lethal total body irradiation; conditions: adult mice; cited from earlier work
[4] = system: inflammation; conditions: rat model; cited from earlier work
[5] = system: collagen-induced arthritis; conditions: rat; cited from earlier work
[6] = pH 7, absence of catalytic metals; cited from earlier work

In the case of `[Cl-].[Cl-].[Mn+2].c1cc2nc(c1)CN[C@@H]1CCCC[C@H]1NCCN[C@@H]1CCCC[C@H]1NC2` [GC4403], the “injury to the colon” value [1] is listed as “very significantly reduce the injury to the colon”, the radiation damage [2] is listed as “attenuate the radiation damage” and the radiation damage [3] is listed as “attenuate the radiation damage”. The inflammation [4] was “inhibit inflammation” and the joint disease [5] was “prevent joint disease”.

In the case of `O=C1O[C@H]([C@@H](O)CO)C(O)=C1O` [ascorbic acid, (5R)-[(1S)-1,2-Dihydroxyethyl]-3,4-dihydroxyfuran-2(5H)-one], the stability of solution [6] is listed as “stable at pH 7”.
